Experimental data from patent US20160000762A1, “IMPROVING COGNITIVE FUNCTION” (THE REGENTS OF THE UNIVERSITY OF CALIFORNIA, priority 2013, published 2016).

Tests used:
[1] = Cerebrovascular permeability and pharmacokinetic analysis of BTA-EG4 in mice; type: in vivo, male CD-1 mice; conditions: 10 mg/kg i.p.
Description: Cerebrovascular permeability and pharmacokinetic analysis of BTA-EG4 in wild-type mice. The partitioning of BTA-EG4 between plasma and brain was studied in male CD-1 mice. The mice were dosed with 10 mg/kg (in 10% DMSO/90% PBS) intraparitoneally (IP, n=2 per time point) and the concentration of BTA-EG4 in the plasma and brain was measured over time. Blood was collected via cardiac puncture and was pooled in EDTA tubes, centrifuged, and the plasma isolated. The brain was collected from each mouse, snap frozen, and homogenized in 2 mL PBS. The concentration of BTA-EG4 in the plasma and brain at each time point was determined by LC/MS/MS and the concentrations of BTA-EG4 in the plasma and brain were plotted as a function of time. Pharmacokinetic parameters for the plasma and brain profile of BTA-EG4 were also calculated: half-life for BTA-EG4 in the plasma and brain (t1/2), the maximum concentration (Cmax) of BTA-EG4 in the plasma and brain, the area under the concentration-time curve (AUC), the brain-to-plasma ratio (BB), and the logarithmic brain-to-plasma ratio (Log BB).

[2] = test system: Aβ; assay: Aβ ELISA, conditioned media of primary cortical neurons; type: cell-based; conditions: 1 or 5 μM, 24 h, vs control (10% DMSO)
Description: Aβ ELISA. Mouse brains were homogenized in tissue homogenization buffer containing 250 mM sucrose, 20 mM Tris base, protease, and phosphatase inhibitors. To measure soluble Aβ, DEA extraction was performed. Crude 10% homogenate was mixed with an equal volume of 0.4% diethylamine (DEA), sonicated, and ultracentrifuged for 1 hr at 100,000×g. The supernatant was collected and neutralized with 10% 0.5 M Tris, pH 6.8. Sensitive and specific ELISAs to rodent Aβ1-40 was purchased from IBL Transatlantic (Toronto, Canada) and conducted per the manufacturer's protocol.
To test whether BTA-EG4 alters Aβ production in vitro, primary cortical neurons were treated with BTA-EG4 (1 or 5 μM) or control (10% DMSO), and Aβ levels were measured using ELISA. […] We then examined whether BTA-EG4 can alter Aβ levels in vivo by injecting wild-type mice daily for 2 weeks with BTA-EG4 (15 or 30 mg/kg, 10% DMSO in saline, i.p.). […] Furthermore, BTA-EG4 altered APP processing in vivo, as monitored by increased sAPPα (α-secretase cleavage product) and decreased sAPPβ (β-secretase cleavage product) levels in BTA-EG4 injected wild-type mice (30 mg/kg, i.p) compared to control-injected mice (FIGS. 1E, 1F).

[3] = test system: CA1 pyramidal neurons; assay: Whole cell recordings (mEPSC, AMPA/NMDA) in CA1 pyramidal neurons of injected mice; type: in vivo; conditions: 30 mg/kg i.p., 2 weeks
Description: Electrophysiology. Transverse [for Schaffer collateral (SC) input studies] or horizontal [for temporammonic (TA) input studies] hippocampal slices (400-μm thick) were prepared from adult mice. Slices were made using ice-cold dissection buffer (in mM: 212.7 sucrose, 2.6KCl, 1.23NaH2PO4, 10 dextrose, 3MgCl2 and 1CaCl2; 5% CO2/95% O2), and recordings were done in a submersion-type chamber perfused with artificial cerebrospinal fluid (ACSF, in mM: 124NaCl, 5KCl, 1.25NaH2PO4, 26NaHCO3, 10 dextrose, 1.5MgCl2, and 2.5CaCl2; 5% CO2/95% O2, 29.5-30.5° C., 2 ml/min). For field potential recordings, synaptic responses were evoked using 0.2 ms duration pulses delivered through a bipolar glass stimulating electrode at 0.0333 Hz. A train of TBS consisted of a burst of 4 pulses at 100 Hz repeated 10 times at 5 Hz. For 4× TBS, 4 trains of TBS were given at 10 sec inter-train-intervals. […] Recording was initiated 2-3 min after break-in, and each cell was recorded for 10-15 min to collect enough mEPSCs for analysis. […] Cells were held at −70 mV, and the recorded mEPSC data were digitized at 10 kHz with a data acquisition board (National Instruments, Austin, Tex.) and acquired through custom-made programs using the Igor Pro software (WaveMetrics, Lake Oswego, Oreg.). […] Only about 4% of the total recorded cells (at most 1 cell per experimental group) were excluded due to negative correlation between mEPSC rise and amplitude. One hundred consecutive mEPSCs that met the rise time criteria were analyzed from each cell. AMPAR- and NMDAR-mediated currents were measured at −70 and +40 mV, respectively. AMPAR mediated EPSC amplitudes were measured at the peak of the current at −70 mV. NMDAR mediated EPSC amplitudes were measured 100 ms after the stimulation artifact. […]
To verify that the increase in dendritic spine density and synaptic proteins reflects an increase in functional synapses, we measured miniature excitatory postsynaptic currents (mEPSCs) from CA1 neurons in hippocampal slices following in vivo administration of BTA-EG4 (30 mg/kg, i.p.) for 2 weeks.

[4] = Capule and Yang, 2012; Inbar et al., 2006; cited from earlier work

Q: For BTA-EG4, which “blood brain barrier crossing” value [1] is on record?
A: readily crosses the blood brain barrier

Q: What about the “logarithmic brain-to-plasma ratio (log BB)” value ([1]; n=2 per time point, estimated value) of the same substance?
A: 0.43

Q: And the Aβ protein levels [2]?
A: significantly decreased

Q: What about the AMPAR/NMDAR ratio [3] of the same substance?
A: did not observe a change

Q: And the “average mEPSC amplitude” value [3]?
A: no significant difference

Q: And the “frequency of mEPSCs” value [3]?
A: significantly increased

Q: And the blood-brain barrier penetration [4]?
A: can penetrate the blood-brain barrier

Q: And the toxicity [4]?
A: no toxicity
